{
  "source": "patent US8389024B2",
  "about": "“Abscisic acid against cancer” (priority 2005, dated 2013)",
  "origin": "cited, not measured here",
  "key": {"[1]": {"details": "the mentioned concentration (50 mg/ml), Sigma-Aldrich"}, "[2]": {"tested_on": "head and neck squamous cell carcinoma", "details": "in vivo"}, "[3]": {"tested_on": "lymphoblastic leukemia, prostate, breast and melanoma human cancer cells"}, "stomatal opening": {"tested_on": "stomatal opening", "details": "10 mcM ABA extracellular application"}, "humans with cancer": {"tested_on": "humans with cancer", "details": "62 random cases, inconclusive cases not considered; digestive treatment with ABA plus vaccine against P. crytocides"}, "[4]": {"tested_on": "HL-60 (promyelocytic leukemia)", "details": "HL-60 tumor cells"}, "[5]": {"tested_on": "four human cancer cell lines (HELA, DU145, HCT116 AND K562)"}, "TNFALFA": {"tested_on": "TNFALFA", "details": "human monocytes, murine microglia and murine macrophages"}, "DU-145 (prostate cancer)": {"tested_on": "DU-145 (prostate cancer)", "details": "DU-145 tumor cells"}, "[6]": {"tested_on": "human and murine pancreatic beta cells"}, "[7]": {"tested_on": "C 1498 transplanted tumor with myeloid leukemia", "details": "for rate of survival at the end of 14 days: groups of 10 mice, treated 7 days; for survival: oral"}, "[8]": {"tested_on": "TCA8113 (human oral carcinoma)", "details": "TCA8113 cells in vitro"}},
  "note": "Like-named read-outs stand apart in the source and are kept apart here.",
  "data": [
    {"molecule": "CC1=CC(=O)CC(C)(C)C1(O)/C=C/C(C)=C\\C(=O)O", "note": "(racemic) [(+/−)-Abscisic acid]", "values": [
      {"measurement": "appearance of the solution in ethanol", "setting": "[1]", "value": "clear to slightly hazy"}
    ]},
    {"molecule": "CC1=CC(=O)CC(C)(C)C1(O)/C=C/C(C)=C\\C(=O)O", "note": "(racemic) [racemic ABA (R)]", "values": [
      {"measurement": "half-lives (catabolism)", "setting": "leaf discs of V. Faba", "value": "30 to 32", "unit": "h"}
    ]},
    {"molecule": "CC1=C(/C=C/C(C)=C/C=C/C(C)=C\\C(=O)O)C(C)(C)CCC1", "note": "[ISOTRETINOIN]", "values": [
      {"measurement": "effectiveness in chemoprevention trial", "setting": "[2]", "value": "not effective"}
    ]},
    {"molecule": "CC/C=C\\C[C@H]1C(=O)CC[C@@H]1CC(=O)O", "note": "[JA, jasmonic acid]", "values": [
      {"measurement": "proliferation or apoptosis of mammalian cancer cells", "setting": "[3]", "value": "can suppress the proliferation or cause apoptosis"}
    ]},
    {"molecule": "CC/C=C\\CC1C(=O)CCC1CC(=O)OC", "note": "(stereo not drawn) [MJ, methyl jasmonate]", "values": [
      {"measurement": "proliferation or apoptosis of mammalian cancer cells", "setting": "[3]", "value": "can suppress the proliferation or cause apoptosis"}
    ]},
    {"molecule": "O=C([O-])c1ccccc1O.[Na+]", "note": "[SA, sodium salicylate]", "values": [
      {"measurement": "proliferation or apoptosis of mammalian cancer cells", "setting": "[3]", "value": "can suppress the proliferation or cause apoptosis"}
    ]},
    {"molecule": "CC1=CC(=O)CC(C)(C)[C@@]1(O)/C=C/C(C)=C\\C(=O)O", "note": "[natural ABA (S)]", "values": [
      {"measurement": "half-lives (catabolism)", "setting": "leaf discs of V. Faba", "value": "6 to 8", "unit": "h"}
    ]},
    {"molecule": "[S-(Z,E)]-5-(1-Hydroxy-2,6,6-trimethyl-4-oxo-2-cyclohexen-1-yl)-3-methyl-2,4-pentadienoic acid [ABA]", "values": [
      {"measurement": "inhibition of stomatal opening", "setting": "stomatal opening; pH 6.15", "value": 98, "unit": "%"},
      {"measurement": "inhibition of stomatal opening", "setting": "stomatal opening; pH 8.0", "value": 57, "unit": "%"},
      {"measurement": "success rate", "setting": "humans with cancer", "value": "around 82%"},
      {"measurement": "changes in morphology of cancer cells", "setting": "[4]", "value": "absence of tumor cell nuclear membrane microvilli and presentation of typical apoptosis characteristics"},
      {"measurement": "apoptosis", "setting": "[5]", "value": "induction of apoptosis"},
      {"measurement": "cell cycle progression", "setting": "[5]", "value": "changed cell cycle progression"},
      {"measurement": "cell proliferation rate", "setting": "[5]", "value": "reduced cell proliferation rate"},
      {"measurement": "luminescence (indicator of reduced negative surface charge)", "setting": "[5]", "value": "reduced luminescence"},
      {"measurement": "tumor growth", "setting": "[5]", "value": "tumor growth reduction"},
      {"measurement": "TNFALFA", "setting": "TNFALFA", "value": "increased"},
      {"measurement": "nuclear protein Ki67 expressed in proliferating tumor cells", "setting": "nuclear protein Ki67", "value": "reduced"},
      {"measurement": "changes in morphology of cancer cells", "setting": "DU-145 (prostate cancer)", "value": "growth in poor condition and nuclear pycnosis"},
      {"measurement": "functional activities of human granulocytes", "setting": "human granulocytes", "value": "stimulates several functional activities as phagocytosis, reactive oxygen species (ROS) and nitric oxide production, and chemotaxis"},
      {"measurement": "angiogenesis", "setting": "a variety of tumor cells", "value": "inhibit angiogenesis"},
      {"measurement": "apoptosis", "setting": "a variety of tumor cells", "value": "produce apoptosis"},
      {"measurement": "cell cycle and cell division of proliferating tumor cells", "setting": "a variety of tumor cells", "value": "make proliferating tumor cells stagnate in S-phase and stop cell division"},
      {"measurement": "differentiation of cancer cells", "setting": "a variety of tumor cells", "value": "become cancer cells in normal cells"},
      {"measurement": "EPD after ABA treatment", "setting": "Lemna gibba G1; after 15 hours ABA treatment, from −109 mV", "value": "−194", "unit": "mV"},
      {"measurement": "potential increase in average (EPD)", "setting": "Lemna gibba G1; treatment with 10-100 mcm ABA", "value": 85, "unit": "mV"},
      {"measurement": "insulin secretion", "setting": "[6]", "value": "endogenous stimulator of insulin secretion"},
      {"measurement": "rate of survival at the end of 14 days", "setting": "[7]; Group II, ABA 1 mg/kg (i.p)", "value": 9, "unit": "survivors"},
      {"measurement": "rate of survival at the end of 14 days", "setting": "[7]; Group III, ABA 10 mg/kg (i.p)", "value": 10, "unit": "survivors"},
      {"measurement": "rate of survival at the end of 14 days", "setting": "[7]; Group IV, ABA 10 mg/kg (oral)", "value": 6, "unit": "survivors"},
      {"measurement": "rate of survival at the end of 14 days", "setting": "[7]; Group V, ABA 100 mg/kg (oral)", "value": 9, "unit": "survivors"},
      {"measurement": "survivors", "setting": "[7]; group number II, 1 mg/kg", "value": 90, "unit": "%"},
      {"measurement": "inhibition of the tumor system (C1498) in mice (C57BL/6J)", "setting": "[7]; mouse, in vivo", "value": "marked effect in the inhibition"},
      {"measurement": "survival", "setting": "[7]; dose at 10 mg/kg", "value": 60, "unit": "%"},
      {"measurement": "survival", "setting": "[7]; dose at 100 mg/kg", "value": 90, "unit": "%"},
      {"measurement": "expression of differentiation and apoptosis markers", "setting": "[8]", "value": "expression of RARBETA, involucrin protein and caspase-3 mRNA"}
    ]}
  ]
}
